Like-named read-outs stand apart in the source and are kept apart here.
Experiments:
thrombocytes [1] = assay: incubation in thrombocyte-enriched plasma (sulphation by thrombocytes); type: in vitro ADME, human
Procedure: Thrombocyte (platelet-)enriched plasma can be prepared by centrifuging blood at 400 g for 10 minutes as this precipitates larger cells (erythrocytes, leukocytes).

thrombocytes [2] = assay: conjugation in thrombocytes in presence of biogenic amine transport inhibitors
[3] = oral bioavailability in humans; type: in vivo
Source text: The principal route of metabolic clearance of 3-[(1R,2R)-3-(dimethylamino)-1-ethyl-2-methylpropyl]phenol in most species, including humans, is glucuronidation, and this route was therefore considered to be very likely to be dominant for 3-[(1S,2S)-3-(dimethylamino)-1-ethyl-2-methylpropyl]phenol as well.

[4] = loss of compound on incubation in heparinised whole human blood; type: in vitro ADME; conditions: for loss of added compound: whole human blood
Source text: The remaining possibility was that the high clearance was due to a stereo-selective biochemical process occurring in blood itself. If true, then it would be expected that 3-[(1S,2S)-3-(dimethylamino)-1-ethyl-2-methylpropyl]phenol, but not 3-[(1R,2R)-3-(dimethylamino)-1-ethyl-2-methylpropyl]phenol, would be metabolised in a time-, concentration-, and temperature-dependent manner by whole human blood.
To test the hypothesis, blood was withdrawn from healthy volunteers, heparinised (final heparin concentration, 15 U/ml), and spiked with 1 μM 3-[(1S,2S)-3-(dimethylamino)-1-ethyl-2-methylpropyl]phenol or 3-[(1R,2R)-3-(dimethylamino)-1-ethyl-2-methylpropyl]phenol. It was mixed on a rotary mixer at 37° C. in closed test-tubes. The rate of loss of the added compounds was determined by taking aliquots at regular intervals, centrifuging at 5000 g for 5 minutes, and analysing the supernatant.
Supernatants were alkalinized by addition of aqueous 25% ammonia (50 μl/ml plasma), spiked with an internal standard, and extracted twice with tertiary butyl methyl ether (2 ml per ml plasma). The ether layers were combined and dried in a stream of nitrogen before being reconstituted in 150 μl chromatography buffer (see below).
All assay supernatants were analysed by reversed-phase HPLC on a Inertsil 5 ODS 2 column (250×4.6 mm). The HPLC system consisted of equipment from Dionex or Gynkotek. The auto-sampler was a GINA 50T unit (Gynkotek); the pump system was type P580A LPG (Gynkotek); the column was thermostatted at 30° C. using a SHT 585 unit (Gynkotek). Effluents were generally monitored for fluorescence emission at 300 nm after excitation at 215 nm using a RF 2000 detector (Dionex); the wavelengths for excitation and emission were chosen to be optimal for 3-[(1S,2S)-3-(dimethylamino)-1-ethyl-2-methylpropyl]phenol or 3-[(1R,2R)-3-(dimethylamino)-1-ethyl-2-methylpropyl]-phenol. Chromatograms were evaluated using Chromeleon software version 6.11 (Dionex).
Generally, the samples were eluted using an isocratic solvent mixture. Sodium pentane-sulphonate was dissolved at 1.92 g/l (10 mM)=PSS; perchloric acid (PA) was 60% w/v. A mixture containing 900 ml PSS, 210 ml methanol, 80 ml tetrahydrofuran, and 0.1 ml PA was made, allowed to stand overnight, and degassed prior to passage over the column. The effluent was passed first through the UV detector, and then into the fluorescence detector.

stability to plasma = type: in vitro ADME
Source text: Blood consists of plasma, plasma enzymes, and various blood cell types (erythrocytes, leukocytes, thrombocytes etc). 3-[(1S,2S)-3-(dimethylamino)-1-ethyl-2-methylpropyl]phenol was expected, and proven, to be stable to plasma. Of the blood cell types, thrombocytes (platelets) were expected to have the highest relevant enzymatic activity in SULT1A3, a sulphotransferase.

[5] = rate of microsomal oxidation in vitro; type: in vitro ADME; conditions: hepatic microsomes
Source text: The probability of different routes of metabolic clearance in vivo can be investigated by estimating the rates of the underlying oxidation or conjugation reactions in vitro using sub-cellular fractions such as hepatic microsomes. Because the rate of microsomal oxidation of 3-[(1S,2S)-3-(dimethylamino)-1-ethyl-2-methylpropyl]phenol could be shown to be very low, it was considered that oxidative metabolism was unlikely to be a significant metabolic clearance route for this molecule.

[6] = pharmacokinetics after intravenous administration in humans; type: in vivo; conditions: for initial plasma concentrations: after intravenous administrations of equal doses, comparison of enantiomers; for elimination halftime: in humans, intravenous administration
Procedure: On examination of the pharmacokinetics of the two compounds after intravenous administration, it became clear that the rate of elimination of 3-[(1S,2S)-3-(dimethylamino)-1-ethyl-2-methylpropyl]phenol was much higher than that of 3-[(1R,2R)-3-(dimethylamino)-1-ethyl-2-methylpropyl]phenol, and higher even than could be explained on clearance of the total hepatic blood flow. […] In fact, the elimination halftime of 3-[(1S,2S)-3-(dimethylamino)-1-ethyl-2-methylpropyl]phenol was ca. 0.75 h.

male Sprague Dawley rats = assay: low intensity tail-flick test after intrathecal administration; type: in vivo, rat; conditions: intrathecal (i.t.) 3.15 μg/animal, 20 min p. appl., mean±s.e.m., n=10
Procedure: Antinociceptive effects of 3-[(1S,2S)-3-(dimethylamino)-1-ethyl-2-methylpropyl]-phenol were evaluated in the low intensity tail-flick test after local drug application into the spinal cord of rats.
160 male Sprague Dawley rats (200 to 260 g body weight) from a commercial breeder (Janvier, Le Genest St Isle, France) were housed under standardized conditions: light/dark rhythm (06.00-18.00 h light, 18.00-06.00 h dark); room temperature 20-24° C.; relative air humidity 35-70%; 15 air changes per hour, air movement <0.2 m/sec. The animals were given water and feedstuff designed for rats/mice/hamsters from Nohrlin (Bad Salzuflen, FRG) ad libitum. They were kept in groups of six in Makrolon cages type 4. There were at least 5 days between the day of delivery and the day of testing.
The experiments were performed using a Tail-flick device from Rhema-Labortechnik (Hofheim/Ts., FRG). Before and after drug application, a radiant heat beam was focused onto the dorsal surface of the rat's tail about 2 to 4 cm apart from the root. […] The latency from switching on the lamp to tail withdrawal was measured. […]
The individual latencies were calculated as the percentage of the Maximum Possible Effect (% MPE) according to the following formula: % MPE=(latency−VTM)/(30sec−VTM)*100% VTM: mean pre-test value, 30 sec: cut off value.
Data were expressed as mean±s.e.m. of the respective animal group.

[7] = in humans, known value; cited from earlier work

CC[C@H](c1ccc[14c](O)c1)[C@H](C)CN(C)C [14C-3-[(1S,2S)-3-(dimethylamino)-1-ethyl-2-methylpropyl]phenol]
reaction products after incubation (thrombocytes [1]; whole blood or thrombocyte-enriched plasma, eluted identically to synthetic sulphate on HPLC): only a single reaction product

CC[C@H](c1cccc(O)c1)[C@H](C)CN(C)C [3-[(1S,2S)-3-(dimethylamino)-1-ethyl-2-methylpropyl]phenol]
rate of conjugation in presence of transport inhibitors (thrombocytes [2]; cocaine 10 μM, nomifensin 10 μM, amphetamine 100 μM, fluoxetine 10 μM, desipramine 100 μM): influenced neither | Km (thrombocytes [1]; estimated from concentration dependency of the reaction rate, read-out: Km of the process): 3.5 µM | loss on incubation in thrombocyte-enriched plasma (thrombocytes [1]; thrombocyte-enriched plasma from a given volume of blood, compared with whole blood): equivalent to that observed on incubation in the original volume of whole blood | oral bioavailability [3]: effectively zero | oral bioavailability or intravenous bioavailability [3]: no relevant oral bioavailability or intravenous bioavailability | concentration above which clearance process is saturable ([4]; whole blood, net losses sub-linear): above 2 μM | loss of added compound ([4]; 1 μM, 37° C., over one hour): 35% | loss of added compound ([4]; 6° C.): no loss | loss of added compound ([4]; room temperature (24° C.)): 7% | stability to plasma (stability to plasma): stable | rate of microsomal oxidation [5]: very low | initial plasma concentrations [6]: essentially identical | clearance relative to hepatic blood flow ([6]; humans, explains short elimination halftime): 5 fold the hepatic blood flow | elimination halftime [6]: ca. 0.75 h | maximum antinociceptive effect (male Sprague Dawley rats): 59.71±2.94 % MPE

CC[C@@H](c1cccc(O)c1)[C@@H](C)CN(C)C [(-)-(1R,2R)-3-(3-dimethylamino-1-ethyl-2-methyl-propyl)-phenol, reference compound]
loss of added compound ([4]; 1 μM, 37° C., over one hour): No loss | rate of microsomal oxidation [5]: similarly low | initial plasma concentrations [6]: essentially identical | elimination halftime [6]: ca. 3.2 h | oral bioavailability [7]: ca. 33%

CC[C@H](c1cccc(OS(=O)(=O)O)c1)[C@H](C)CN(C)C [3-[(1S,2S)-3-(dimethylamino)-1-ethyl-2-methylpropyl]phenol-sulphate]
accumulation in pelleted thrombocytes (thrombocytes [2]; under any condition): no accumulation
